Experimental data: patent US4681699A, “Bisazo dyes and their use in liquid crystalline materials” (BASF Aktiengesellschaft, priority 1984, dated 1987)

Legend:
[1] = Degree of order S of dye in nematic liquid crystal mixture (dichroic ratio CR, homogeneously oriented measuring cell); assay type: physicochemical
Protocol: (§1) The degree of order S measured at room temperature, the solubility L likewise determined at room temperature, and the Merck liquid crystal mixtures used are summarized in Table 1 for Examples 1, 4, 5, 8, 12, 15 and 18.
(§2) The values for the degree of order and the solubility which have been measured at room temperature in ZLI 2452 are summarized in Table 2 for some of the Examples 19-46.
The degree of order S was determined on the basis of the known equation [formula] in a commercial measuring cell with a homogeneous orientation (polyimide).The dichroic ratio CR was determined by measuring the extinctions E^.parallel. (measured with light polarized parallel to the preferred direction of the nematic phase) and E^.perp. (measured with light polarized perpendicular to the preferred direction of the nematic phase) and using the relationship CR=E^.parallel. /E^.perp., the dye concentrations being chosen so that E^.parallel. was from 1 to 2. The measurements were carried out using an Acta CIII spectrophotometer from Beckmann.

[2] = Solubility L of dye in liquid crystal mixture at room temperature (saturated solution, comparison of extinctions); assay type: physicochemical
Protocol: as §1, §2
The solubility was determined as described below. 50 mg of the particular dye was stirred for 1 week at room temperature in 1 ml of liquid crystal, the saturated solution was centrifuged off from the residue, and the solubility was determined by comparison of extinctions.

[3] = liquid crystal mixture ZLI 1957/5
[4] = liquid crystal mixture ZLI 1840
[5] = liquid crystal mixture ZLI 2452 (Table 1)
[6] = liquid crystal mixture ZLI 2585

SMILES | Degree of order S (at room temperature) ([1]; ZLI 2452 (Table 2)) | Solubility L (at room temperature) ([2]; ZLI 2452 (Table 2)) [%] | also measured
CCCCCCCCSc1nsc(N=Nc2ccc(N=Nc3ccc(N(C)CCCC)cc3)cc2)n1 [Example 1] |  |  | Degree of order S (at room temperature) [1, 3]: 0.72; Solubility L (at room temperature) [2, 3]: 1.5%
CCCCSc1nsc(N=Nc2cc(C)c(N=Nc3ccc(N(C)C)cc3C)cc2C)n1 [Example 4] |  |  | Degree of order S (at room temperature) [1, 4]: 0.73; Solubility L (at room temperature) [2, 4]: 0.9%
Cc1cc(N=Nc2ccc(N(C)C)cc2C)c(C)cc1N=Nc1nc(SCc2ccccc2)ns1 [Example 5] |  |  | Degree of order S (at room temperature) [1, 4]: 0.74; Solubility L (at room temperature) [2, 4]: 0.3%
CCCCCCCCSc1nsc(N=Nc2cc(C)c(N=Nc3ccc(N(C)C)cc3C)cc2C)n1 [Example 8] |  |  | Degree of order S (at room temperature) [1, 3]: 0.73; Degree of order S (at room temperature) [1, 5]: 0.76; Solubility L (at room temperature) [2, 3]: 1.5%
CCNc1ccc(N=Nc2cc(C)c(N=Nc3nc(SC)ns3)cc2C)c2ccccc12 [Example 12] |  |  | Degree of order S (at room temperature) [1, 4]: 0.72; Solubility L (at room temperature) [2, 4]: 0.7%
CCCCCCCCSc1nsc(N=Nc2cc(C)c(N=Nc3ccc(NCc4ccc(C5CCC(CCCC)CC5)cc4)c4ccccc34)cc2C)n1 (stereo not drawn) [Example 15] |  |  | Degree of order S (at room temperature) [1, 3]: 0.77; Degree of order S (at room temperature) [1, 5]: 0.81; Degree of order S (at room temperature) [1, 6]: 0.74; Solubility L (at room temperature) [2, 3]: 1.4%; Solubility L (at room temperature) [2, 5]: 2.8%; Solubility L (at room temperature) [2, 6]: 2.8%
CCCCCCCCSc1nsc(N=Nc2ccc(N=Nc3ccc(NCc4ccc(C5CCC(CCCC)CC5)cc4)c4ccccc34)cc2)n1 (stereo not drawn) [Example 18] |  |  | Degree of order S (at room temperature) [1, 3]: 0.79; Solubility L (at room temperature) [2, 3]: 0.9%
CCCCCCCCNc1ccc(N=Nc2cc(C)c(N=Nc3nc(SCCCCCCCC)ns3)cc2C)c2ccc(C)nc12 [Example 19] | 0.75 | 0.6 | 
CCCCCCCCCCCCN(C)c1ccc(N=Nc2cc(C)c(N=Nc3nc(CCCCCCC)ns3)cc2C)c2ccccc12 [Example 22] | 0.77 | 1.7 | 
CCCCCCCCCCCCNc1ccc(N=Nc2cc(C)c(N=Nc3nc(SC)ns3)cc2C)c2ccccc12 [Example 26] | 0.76 | 1.3 | 
CCCCCCCCCCCCNc1ccc(N=Nc2cc(C)c(N=Nc3nc(SCCCCCCC)ns3)cc2C)c2ccccc12 [Example 35] | 0.79 | 0.6 | 
CCCCCCCCNc1ccc(N=Nc2cc(C)c(N=Nc3nc(SCCCCCCCC)ns3)cc2C)c2ccccc12 [Example 36] | 0.77 | 0.8 | 
CCCCC(CC)CSc1nsc(N=Nc2cc(C)c(N=Nc3ccc(NCC)c4ccccc34)cc2C)n1 (stereo not drawn) [Example 38] | 0.74 | > 5 | 
CCCCCCCCCCCCNc1ccc(N=Nc2cc(C)c(N=Nc3nc(SCCCCCCCCCCCC)ns3)cc2C)c2ccccc12 [Example 40] | 0.77 | 1.2 | 
CCCCCCCCSc1nsc(N=Nc2cc(C)c(N=Nc3ccc(NCCc4ccccc4)c4ccccc34)cc2C)n1 [Example 41] | 0.74 | 0.6 | 
CCCCCCCCSc1nsc(N=Nc2cc(C)c(N=Nc3ccc(NCc4ccc(CCCCC)cc4)c4ccccc34)cc2C)n1 [Example 42] | 0.80 | 0.4 | 
CCCCCCCCSc1nsc(N=Nc2cc(C)c(N=Nc3ccc(Nc4ccc(CCCC)cc4)c4ccccc34)cc2C)n1 [Example 43] | 0.71 | 3.2 | 
CCCCC1CCC(c2ccc(CNc3ccc(N=Nc4ccc(N=Nc5nc(SCC(CC)CCCC)ns5)cc4)c4ccccc34)cc2)CC1 (stereo not drawn) [Example 44] | 0.81 | 2.6 | 
CCCCC1CCC(c2ccc(CNc3ccc(N=Nc4ccc(N=Nc5nc(SCC(CC)CCCC)ns5)c(C)c4)c4ccccc34)cc2)CC1 (stereo not drawn) [Example 45] | 0.81 | 2.4 | 
CCCCC1CCC(c2ccc(CNc3ccc(N=Nc4cc(C)c(N=Nc5nc(SCC(CC)CCCC)ns5)cc4C)c4ccccc34)cc2)CC1 (stereo not drawn) [Example 46] | 0.80 | 0.8 | 
